Active and inactive are the calls of the source.
How the values were obtained:
[1] = biological target: T1, Heat shock factor protein 1 (Mus musculus, UniProt P38532); test: decrease of HSF1-responsive luciferase luminescence – cell-based, NIH3T3, dose retest, confirmation (AID 2382); format: functional;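 further: NIH3T3 fibroblasts with HSF1-driven luciferase reporter stressed by proteasome inhibitor MG132; luminescence from HSF1-driven luciferase expression after 8 hours of MG132 stress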
T1 sequence (P38532 whole entry): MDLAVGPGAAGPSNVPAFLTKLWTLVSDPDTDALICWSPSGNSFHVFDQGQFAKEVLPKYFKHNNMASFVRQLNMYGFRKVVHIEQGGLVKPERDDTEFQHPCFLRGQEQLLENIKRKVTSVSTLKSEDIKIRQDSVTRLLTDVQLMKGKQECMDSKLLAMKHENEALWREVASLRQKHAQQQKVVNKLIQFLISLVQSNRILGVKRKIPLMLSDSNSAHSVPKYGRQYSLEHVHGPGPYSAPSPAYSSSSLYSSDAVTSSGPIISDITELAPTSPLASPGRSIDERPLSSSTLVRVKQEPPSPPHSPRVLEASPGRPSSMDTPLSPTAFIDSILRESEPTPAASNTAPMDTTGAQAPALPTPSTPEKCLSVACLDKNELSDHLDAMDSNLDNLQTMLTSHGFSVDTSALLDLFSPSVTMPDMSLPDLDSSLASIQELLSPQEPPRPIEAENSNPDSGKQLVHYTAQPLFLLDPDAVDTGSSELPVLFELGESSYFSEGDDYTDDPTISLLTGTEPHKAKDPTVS

[2] = biological target: T1, Heat shock factor protein 1; test: enhancement of HSF1-driven luciferase signal – cell-based, NIH3T3, luminescence, dose retest, confirmation (AID 435004); format: functional;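 further: stress induced by proteasome inhibitor MG132 added 30 min after compound; luciferase reporter driven by HSF1 response element in NIH3T3 cells; actives raise luminescence as potentiators of the MG132 stress response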
Cytochrome P450 2C9 = Cytochrome P450 2C9 (Homo sapiens, UniProt P11712)
Chain of Cytochrome P450 2C9 (P11712 whole entry): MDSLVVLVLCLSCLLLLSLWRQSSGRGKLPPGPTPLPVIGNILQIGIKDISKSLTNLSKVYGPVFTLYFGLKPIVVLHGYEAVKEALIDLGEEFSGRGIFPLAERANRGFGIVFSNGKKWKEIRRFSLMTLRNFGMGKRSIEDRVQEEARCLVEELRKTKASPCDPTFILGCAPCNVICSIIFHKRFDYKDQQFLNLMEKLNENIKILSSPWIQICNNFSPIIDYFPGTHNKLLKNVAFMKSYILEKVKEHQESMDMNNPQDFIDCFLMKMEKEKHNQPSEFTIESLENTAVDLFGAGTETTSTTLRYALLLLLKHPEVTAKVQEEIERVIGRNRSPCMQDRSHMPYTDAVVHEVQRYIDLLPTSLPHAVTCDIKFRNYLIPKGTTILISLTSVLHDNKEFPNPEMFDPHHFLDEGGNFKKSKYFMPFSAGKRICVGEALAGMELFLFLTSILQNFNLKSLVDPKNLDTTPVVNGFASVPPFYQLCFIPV

[3] = biological target: T2, Replicative DNA helicase DnaB (Mycobacterium tuberculosis, UniProt P9WMR3); test: DnaB intein splicing inhibitors, dose response, biochemical, cell-free fluorescence (AID 449749); format: functional
T2 sequence (P9WMR3 whole entry): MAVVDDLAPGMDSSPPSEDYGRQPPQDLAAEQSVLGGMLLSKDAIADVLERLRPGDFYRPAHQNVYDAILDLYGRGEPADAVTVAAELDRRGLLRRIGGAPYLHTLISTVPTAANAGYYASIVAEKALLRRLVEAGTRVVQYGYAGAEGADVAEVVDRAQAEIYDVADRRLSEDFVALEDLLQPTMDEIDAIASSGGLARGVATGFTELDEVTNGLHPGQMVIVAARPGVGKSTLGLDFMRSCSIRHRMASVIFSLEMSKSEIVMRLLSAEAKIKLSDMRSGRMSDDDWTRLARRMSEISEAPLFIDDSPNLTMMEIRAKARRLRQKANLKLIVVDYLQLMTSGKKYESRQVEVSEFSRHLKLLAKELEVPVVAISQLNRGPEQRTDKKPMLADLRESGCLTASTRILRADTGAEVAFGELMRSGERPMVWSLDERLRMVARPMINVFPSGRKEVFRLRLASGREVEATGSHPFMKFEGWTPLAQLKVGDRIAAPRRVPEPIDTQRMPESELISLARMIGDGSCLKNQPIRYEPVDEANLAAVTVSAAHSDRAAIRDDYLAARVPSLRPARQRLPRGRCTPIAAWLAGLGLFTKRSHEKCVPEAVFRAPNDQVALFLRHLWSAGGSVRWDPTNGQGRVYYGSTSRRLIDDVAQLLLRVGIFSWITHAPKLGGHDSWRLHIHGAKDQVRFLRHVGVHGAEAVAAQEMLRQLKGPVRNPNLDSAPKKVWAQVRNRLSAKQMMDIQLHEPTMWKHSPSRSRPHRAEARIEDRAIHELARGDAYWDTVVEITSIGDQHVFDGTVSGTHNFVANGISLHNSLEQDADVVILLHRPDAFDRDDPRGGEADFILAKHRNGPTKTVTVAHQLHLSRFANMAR

Protein RecA = biological target: T3, Protein RecA (Mycobacterium tuberculosis, UniProt P9WHJ3); test: Fluorescence Cell-Free Homogeneous Dose Retest to Identify Inhibitors of RecA-Intein Splicing Activity. [Related pubchem assays (depositor defined):AID2097, AID2223, AID489010, AID492950]; format: functional
T3 sequence (P9WHJ3 whole entry): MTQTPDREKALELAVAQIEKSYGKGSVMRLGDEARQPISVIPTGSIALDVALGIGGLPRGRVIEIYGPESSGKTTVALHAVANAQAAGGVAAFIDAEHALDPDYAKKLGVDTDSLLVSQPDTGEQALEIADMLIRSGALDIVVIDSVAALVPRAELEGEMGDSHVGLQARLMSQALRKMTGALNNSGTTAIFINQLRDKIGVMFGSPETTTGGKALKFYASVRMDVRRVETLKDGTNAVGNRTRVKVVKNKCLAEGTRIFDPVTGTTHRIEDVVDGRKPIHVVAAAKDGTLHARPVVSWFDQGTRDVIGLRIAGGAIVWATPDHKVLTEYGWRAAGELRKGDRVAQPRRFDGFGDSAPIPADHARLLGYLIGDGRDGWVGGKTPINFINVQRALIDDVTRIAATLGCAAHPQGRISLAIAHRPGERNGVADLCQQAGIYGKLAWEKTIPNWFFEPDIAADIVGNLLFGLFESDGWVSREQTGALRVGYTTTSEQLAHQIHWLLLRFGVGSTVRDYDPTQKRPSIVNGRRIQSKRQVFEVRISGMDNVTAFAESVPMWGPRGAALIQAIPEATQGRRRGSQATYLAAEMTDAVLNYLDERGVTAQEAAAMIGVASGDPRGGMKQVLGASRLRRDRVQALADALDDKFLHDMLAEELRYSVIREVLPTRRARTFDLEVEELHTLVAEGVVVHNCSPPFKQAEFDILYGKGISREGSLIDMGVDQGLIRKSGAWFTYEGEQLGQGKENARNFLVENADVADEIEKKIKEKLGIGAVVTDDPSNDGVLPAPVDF

Cytochrome P450 2C19 = Cytochrome P450 2C19 (Homo sapiens, UniProt P33261); test: Cytochrome panel assay with activity outcomes. Panel member name: p450-cyp2c19 Compounds with AC50 equal or less than 10 uM are considered active; format: functional; conditions: read-out: AC50
Chain of Cytochrome P450 2C19 (P33261 whole entry): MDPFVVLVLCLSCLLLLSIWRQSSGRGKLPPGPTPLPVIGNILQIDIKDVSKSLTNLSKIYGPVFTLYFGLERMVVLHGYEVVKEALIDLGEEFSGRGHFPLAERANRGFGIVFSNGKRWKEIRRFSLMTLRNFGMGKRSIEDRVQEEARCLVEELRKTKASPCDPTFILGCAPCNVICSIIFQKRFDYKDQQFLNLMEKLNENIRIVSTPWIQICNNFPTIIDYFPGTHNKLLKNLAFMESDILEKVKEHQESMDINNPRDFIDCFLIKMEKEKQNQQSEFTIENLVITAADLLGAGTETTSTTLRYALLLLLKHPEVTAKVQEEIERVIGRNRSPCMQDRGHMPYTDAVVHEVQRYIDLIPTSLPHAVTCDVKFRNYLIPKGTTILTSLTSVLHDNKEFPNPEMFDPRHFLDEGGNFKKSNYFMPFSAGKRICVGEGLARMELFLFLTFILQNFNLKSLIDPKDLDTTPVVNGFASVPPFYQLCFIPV

[4] = luciferase reporter signal suppression in cells – H4 neuroglioma cells, luminescence, dose response (AID 1990); format: functional, cell-based
[5] = Luminescence Cell-Based Dose Response HTS to Identify Inhibitors of 5'UTR Stem-Loop Driven Prion Protein mRNA Translation in H4 Neuroglioblastoma Cells. [Related pubchem assays: 1827 (Project Summary), 1813 (Primary HTS)]; format: functional
[6] = alpha-synuclein stem-loop luciferase translation blockers – H4 neuroglioma cells, luminescence, confirmation (AID 1988); format: functional, cell-based
[7] = Trypanosoma cruzi growth suppression in host cells – NIH3T3 host cells, beta-gal luminescence, confirmation (AID 2044); format: functional, cell-based;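 further: intracellular parasites grown in NIH/3T3 mouse fibroblasts as host cells; luminescent beta-galactosidase reporter signal from transgenic T. cruzi replicating inside host cells; inhibitors lower the luminescence signal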
[8] = NIH3T3 cell viability loss – ATP luminescence, mouse fibroblasts, counter-screen, dose response (AID 2010); format: functional, cell-based;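 further: cells exposed to compound for about 90 hours before reading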

Compound: O=C(Nc1ccc2[nH]ncc2c1)c1ccccc1Cl
- EC50 [1]: > 195 µM (not active)

Compound: Cc1ccc2c(c1)N(Cc1ccc([N+](=O)[O-])cc1)C=NS2(=O)=O
- EC50 [1]: > 195 µM (not active)

Compound: CN1CCN(C(=O)c2cc([N+](=O)[O-])cc([N+](=O)[O-])c2)CC1
- EC50 [1]: > 195 µM (not active)

Compound: CCc1ccc(NC(=O)COC(=O)/C=C/c2c(C)nn(C3CCS(=O)(=O)C3)c2Cl)cc1 (stereo unspecified)
- EC50 [2]: > 260 µM (inactive)

Compound: O=C(Cc1ccccc1)NC(=S)Nc1cc(C(F)(F)F)ccc1Cl
- AC50 (Cytochrome P450 2C9): 3.55 µM (inconclusive)

Compound: CCN1C(=O)[C@H]2[C@@H](c3ccc(C)cc3)N3C(=O)N(c4ccc(C)cc4)C(=O)[C@@]3(C)[C@H]2C1=O
- EC50 [1]: > 195 µM (not active)

Compound: COC(=O)c1c(N2C(=O)[C@H]3[C@@H](C2=O)[C@]2(C(=O)Nc4c(C)cccc42)N2CCC[C@@H]32)sc(C)c1C
- EC50 [1]: > 195 µM (not active)

Compound: CN(C)c1ccc(C(=O)n2nnc3ccccc32)cc1
- AC50 [3]: 7.46 µM (active)
- EC50 (Protein RecA): 9.71 µM (active)

Compound: O=C1CC(N2C(=O)/C(=C/C=C/c3ccccc3)SC2=S)C(=O)N1c1ccccc1 (stereo unspecified)
- EC50 [2]: > 260 µM (inactive)

Compound: COc1cc(C(=O)N(C)C2CCCN(Cc3ccccc3F)C2)cc(OC)c1OC (stereo unspecified)
- EC50 [1]: > 195 µM (not active)

Compound: CC(C)C(C(=O)NCC1CCCO1)N(Cc1ccco1)C(=O)CNS(=O)(=O)c1ccc(F)cc1 (stereo unspecified)
- AC50 (Cytochrome P450 2C19): 11.2 µM (inconclusive)
- AC50 (Cytochrome P450 2C9): 39.8 µM (inconclusive)

Compound: COc1ccc2[nH]c(CN3CCC(CO)(CCOc4ccccc4)CC3)c(C)c2c1
- AC50 [3]: > 380 µM (inactive)
- EC50 (Protein RecA): > 380 µM (inactive)

Compound: COc1ccc(N(CC(=O)Nc2cccc(C)c2)S(=O)(=O)c2c(C)noc2C)cc1
- EC50 [1]: > 195 µM (not active)

Compound: CCOc1ccc(NC(=S)N(CCc2ccncc2)C(C)C)cc1
- EC50 [1]: > 195 µM (not active)

Compound: CCC12C(=O)C(CC)(C(c3ccccc3)=C1c1ccccc1)[C@@H]1C(=O)N(c3ccc(C)cc3)C(=O)C12 (stereo partly specified)
- EC50 [4]: 14.8 µM (active)
- EC50 [5]: > 120 µM (not active)
- EC50 [6]: > 120 µM (not active)
- EC50 [7]: 2.87 µM (active)
- EC50 [8]: > 30 µM (not active)

Compound: O=S(=O)(NCc1ccccn1)c1ccc2ccccc2c1
- EC50 [2]: > 260 µM (inactive)

Compound: COc1cccc(NC=C2C(=O)CC(C)(C)CC2=O)c1
- EC50 [2]: 8.09 µM (active)

Compound: COc1c([N+](=O)[O-])c(=O)oc2ccccc12
- EC50 [1]: > 195 µM (not active)

Compound: CCN(C1CCS(=O)(=O)C1)S(=O)(=O)c1cccs1 (stereo unspecified)
- EC50 [1]: > 195 µM (not active)

Compound: Clc1ccccc1-c1cncnc1NCc1cccs1
- AC50 (Cytochrome P450 2C9): 0.794 µM (inconclusive)

Compound: Cc1n[nH]c(O)c1C(c1ccc(F)cc1)c1c(C)n[nH]c1O
- AC50 [3]: 0.628 µM (active)
- EC50 (Protein RecA): 0.291 µM (active)

Compound: Cc1ccccc1/[N+]([O-])=C/c1cccs1
- EC50 [2]: > 260 µM (inactive)

Compound: Fc1ccccc1-c1nc2nc3ccccc3nc2n1CC1CCCO1 (stereo unspecified)
- EC50 [2]: > 260 µM (inactive)

Compound: CCOc1ccccc1-c1noc(CCCC(=O)NC2CCCCC2)n1
- EC50 [2]: > 260 µM (inactive)

Compound: COc1ccc(Cc2noc(-c3ccc(OC)c(OC)c3)n2)cc1OC
- EC50 [4]: > 120 µM (not active)
- EC50 [5]: > 120 µM (not active)
- EC50 [6]: > 120 µM (not active)

Compound: Cc1ccc2oc(C(=O)N3CCC(C(N)=O)(N4CCCCC4)CC3)c(C)c2c1
- EC50 [1]: > 195 µM (not active)

Compound: Cc1sc2ncnc(N3CCOCC3)c2c1C
- EC50 [4]: 20.4 µM (active)
- EC50 [5]: 40.6 µM (active)
- EC50 [6]: 17.5 µM (active)

Compound: Cc1n[nH]c(O)c1C(c1ccc2c(c1)OCO2)c1c(C)n[nH]c1O
- AC50 [3]: 0.324 µM (active)
- EC50 (Protein RecA): 0.189 µM (active)

Compound: O=S1(=O)C=C(N2CCOCC2)c2ccccc21
- AC50 (Cytochrome P450 2C9): 39.8 µM (inconclusive)

Compound: CC1(c2cccs2)CC(c2cccs2)=C(C#N)C(=O)N1 (stereo unspecified)
- EC50 [2]: > 260 µM (inactive)

Compound: O=C(NCc1nc2ccccc2[nH]1)C1=C[C@@H](c2ccc3c(c2)OCO3)C[C@@H](OCc2ccc(CO)cc2)O1
- EC50 [1]: > 195 µM (not active)

Compound: O=C(Nc1ccc2c(c1)ncn2C1CCCCC1)c1ccco1
- EC50 [1]: > 195 µM (not active)

Compound: CCOc1ccccc1NC(=O)Cn1nnc(C(=O)NCc2ccc3c(c2)OCO3)c1N
- EC50 [4]: > 120 µM (not active)
- EC50 [5]: 36.7 µM (active)
- EC50 [6]: > 120 µM (not active)

Compound: CCCN(CCC)C(=O)CSc1nc2nnc(C)c-2c(N)n1-c1ccc(OC)cc1
- EC50 [4]: 19.3 µM (active)
- EC50 [5]: 19.8 µM (active)
- EC50 [6]: 16.1 µM (active)

Compound: O=C(Nc1cccc(-c2ccc(F)cc2)c1)C1CCCN(C(=O)c2cscn2)C1 (stereo unspecified)
- EC50 [1]: > 195 µM (not active)

Compound: COc1ccc(Cl)cc1N1C(=O)/C(=C\c2sccc2C)N=C1SCC(=O)NC1CC1
- EC50 [2]: > 260 µM (inactive)

Compound: COc1ccc(N2CCN(C(=O)COC(=O)CCOc3ccccc3C)CC2)cc1
- EC50 [1]: > 195 µM (not active)

Compound: O=C(Cc1cccs1)NCc1ccccc1Br
- EC50 [2]: > 260 µM (inactive)

Compound: N#Cc1ccc(CN2CCC3(CC2)CCN(C(=O)c2cnccn2)CC3)cc1
- AC50 (Cytochrome P450 2C9): 39.8 µM (inconclusive)

Compound: Cc1cc(C)n(-c2nc3ccccc3s2)n1
- EC50 [1]: > 195 µM (not active)

Compound: COC(=O)Nc1ccc(S(=O)(=O)Nc2cccc3ccccc23)cc1
- EC50 [2]: > 260 µM (inactive)

Compound: COc1ccc(N2CCN(C(c3cccs3)C(C)NS(=O)(=O)c3ccccc3)CC2)cc1 (stereo unspecified)
- EC50 [2]: > 260 µM (inactive)

Compound: CN1CCN(C(=O)c2ccc(Cn3cc(Cl)cn3)o2)CC1
- EC50 [2]: > 260 µM (inactive)

Compound: CC(C)C(C)N(Cc1ccc(C(=O)O)cc1)C(=O)c1ccc2ccccc2n1 (stereo unspecified)
- EC50 [2]: > 260 µM (inactive)

Compound: COc1ccc(NC(=O)Nc2c(O)ccc3ccccc23)cc1
- AC50 [3]: > 380 µM (inactive)
- EC50 (Protein RecA): 1.49 µM (active)

Compound: COc1cc(OC)cc(C(=O)N/N=C(\C)CC(=O)Nc2ccccn2)c1
- AC50 [3]: 13.1 µM (active)
- EC50 (Protein RecA): 7.81 µM (active)

Compound: S=C1NCCN1 [ETHYLENE THIOUREA]
- EC50 [1]: > 195 µM (not active)
